Measurements reported in patent US8716242B2, “β-hairpin peptidomimetics” (priority 2009, dated 2014).
Bridge positions count the residues as written; N and C are the ends. Square brackets hold non-standard residues; d marks the D form. Peptide text beside a SMILES is read from it. * marks the point of attachment. Gly(Dodecyl) = CCCCCCCCCCCC[C@H](N)C(=O)O; Lauroyl = CCCCCCCCCCCC(=O)*; Octanoyl = CCCCCCCC(=O)*; Dab = NCC[C@H](N)C(=O)O

What was measured:
[1] = molecular target: T1, human CXCR4 (Homo sapiens, UniProt P61073); test: Ca2+-assay: CXCR4-antagonizing activity (SDF-1 induced calcium mobilization); format: cell-based; conditions: mouse pre-B cell line 300-19 transfected with human CXCR4; SDF-1 induced Ca2+ mobilization; read-out: IC50% [nM] ± SD, CXCR4 receptor
T1 construct: expressed in transfected cells; host or cells: mouse pre-B cell line 300-19
Text: 2.3. Ca^2+-Assay: CXCR4-Antagonizing Activity of the Peptides
Increases in intracellular calcium were monitored using a Flexstation 384 (Molecular Devices, Sunnyvale, Calif.) to assay the peptides for CXCR4 antagonism in a mouse pre-B cell line 300-19 stably transfected with human CXCR4 (E. Oberlin, A. Amara, F. Bachelerie, C. Bessia, J.-L. Virelizier, F. Arenzana-Seisdedos, O, Schwartz, J.-M. Heard, I. Clark-Lewis, D. F. Legler, M. Loetscher, M. Baggiolini, B. Moser, Nature 1996, 382, 833-835; M. Loetscher, T. Geiser, T. O'Reilly, R. Zwalen, M. Baggiolini, B. Moser, J. Biol. Chem. 1994, 269, 232-237; M. D'Apuuo, A. Rolink, M. Loetscher, J. A. Hoxie, I. Clark-Lewis, F. Melchors, M. Baggiolini, B. Moser, Eur. J. Immunol. 1997, 27, 1788-1793). The cells were batch loaded with the Calcium 4 Assay kit (Molecular Devices) in assay buffer (Hanks Balanced salt solution [HBSS], 20 mM HEPES, pH 7.4, 0.1% BSA) for 1 h at room temperature and labeled cells were dispensed into black well assays plates (Costar No. 3603). Calcium mobilization induced by stromal-derived factor-1 (SDF-1) was measured in the Flexstation 384 (excitation: 485 nm; emission: 525 nm) for 90 seconds. Antagonist activity of peptides was determined by spiking the cells with compounds prior to SDF-1 addition. Dose response curves (compound concentration versus % maximum response for SDF-1) were determined for each antagonist and IC50 values were calculated by fitting the data to a four parameter logistic equation using SoftmaxPro 4.8 (Molecular Devices).

[2] = Cytotoxicity, MTT reduction assay, HELA cells; format: cell-based; conditions: human, HELA cells (Acc57), 12.5-50 μM
Protocol: (§1) Mouse pre-B cells were cultured in RPMI1640 plus 5% FBS, antibiotic/antimycotic, non essential amino acid, 50 μM β-mercaptoethanol and 1 mM natrium pyruvate. HELA cells were maintained in RPMI1640 plus 10% FBS, pen/strept and 2 mM L-glutamine. Cos-7 cells were grown in DMEM medium with […] glucose supplemented with 10% FCS, pen/strept and 2 mM L-glutamine. All cell lines were grown at 37° C. at 5% CO2. Cell media, media supplements, PBS-buffer, HEPES, antibiotic/antimycotic, pen/strept, non essential amino acid, L-glutamine, β-mercaptoethanol and sera were purchased from Gibco (Pailsey, UK). All fine chemicals were supplied by Merck (Darmstadt, Germany).
(§2) The cytotoxicity of the peptides to HELA cells (Acc57) and COS-7 cells (CRL-1651) was determined using the MTT reduction assay (T. Mossman, J. Immunol. Meth. 1983, 65, 55-63; M. V. Berridge, A. S. Tan, Arch. Biochem. Biophys. 1993, 303, 474-482). Briefly, the method was as follows: 4000 HELA cells/well and 3400 COS-7 cells/well were seeded and grown in 96-well microtiter plates for 24 h at 37° C. at 5% CO2. Thereafter, time zero (Tz) was determined by MTT reduction (see below). The supernatant of the remaining wells was discarded, and fresh medium and compounds in serial dilutions (12.5, 25 and 50 μM, triplicates) were pipetted into the wells. After incubation of the cells for 48 h at 37° C. at 5% CO2 the supernatant was discarded again and 100 μL MTT reagent (0.5 mg/mL in RPMI1640 and DMEM, respectively)/well was added. Following incubation at 37° C. for 2-4 h the media were aspirated and the cells were spiked (100 μL isopropanol/well). The absorbance of the solubilized formazan was measured at 595 nm (OD595peptide). For each concentration averages were calculated from triplicates. The percentage of growth was calculated as follows: (OD595peptide-OD595Tz-OD595Empty well)/(OD595Tz-OD595Empty well)×100%. The GI50 (Growth Inhibition) concentrations were calculated for each peptide by using a trend line function for the concentrations (50, 25, 12.5 and 0 μM), the corresponding percentages and the value 50, (=TREND (C50: C0, %50:%0,50).

[3] = Cytotoxicity, MTT reduction assay, COS-7 cells; format: cell-based; conditions: African green monkey, COS-7 cells (CRL-1651), 12.5-50 μM
Protocol: as §1, §2

[4] = tested on: human red blood cells (hRBC); test: Hemolysis of human red blood cells; format: cell-based; conditions: 20% hRBC, 1 h, 37° C.
Protocol: The peptides were tested for their hemolytic activity against human red blood cells (hRBC). Fresh hRBC were washed three times with phosphate buffered saline (PBS) and centrifuged for 10 min at 2000×g. Compounds (100 μM) were incubated with 20% hRBC (v/v) for 1 h at 37° C. and shaking at 300 rpm. The final erythrocyte concentration was approximately 0.9×10^9 cells/mL. A value of 0% and 100% cell lyses, respectively, was determined by incubation of hRBC in the presence of PBS containing 0.001% acetic acid and 2.5% Triton X-100 in H2O, respectively. The samples were centrifuged, the supernatants were 8-fold diluted in PBS buffer and the optical densities (OD) were measured at 540 nm. The 100% lyses value (OD540H2O) gave an OD540 of approximately 0.5-1.0.
(§3) Percent hemolysis was calculated as follows: (OD540peptide/OD540H2O)×100%. 2.6. Plasma Stability

[5] = Plasma stability in human plasma; format: in vitro ADME; conditions: human plasma, 37° C.; for remaining at 24 h, 10 μM: 1440 min, read-out: human pl. cpd left at 1440 min; for human pl. T1/2: up to 1440 min
Protocol: as §3
(§4) The stability of the peptides in human and mouse plasma was determined by applying the following method: 346.5 μL/deep well of freshly thawed human plasma (Basler Blutspendedienst) and mouse plasma (Harlan Sera-Lab, UK), respectively, were spiked with 3.5 μL/well of compound dissolved in DMSO/H2O ([…] [v/v], 1 mM, triplicate) and incubated at 37° C. At t=0, 15, 30, 60, 120, 240 and 1440 min aliquots of 50 μL were transferred to filtration plate wells containing 150 μL/well of 2% formic acid in acetonitrile. Following shaking for 2 min the occurred suspensions were filtrated by vacuum and 50 μL of each filtrate was mixed with 100 μL of 1% formic acid in H2O. After transfer to a propylene microtiter plate, the filtrates were analyzed by LC/MS as follows: Column: Waters, XBridge C18, mobile phases: (A) water+0.1% formic acid and (B) acetonitrile/water, 95/5 (v/v)+0.1% formic acid, gradient: 5%-100% (B) in 2 minutes, electrospray ionization, MRM detection (triple quadrupole). The peak areas were determined and triplicate values are averaged. The stability is expressed in percent of the initial value at t=0. (tx/t0×100). By using the TREND function of EXCEL (Microsoft Office 2003) T1/2 were determined.

[6] = Plasma stability in mouse plasma; format: in vitro ADME; conditions: mouse plasma, 37° C.; for remaining at 24 h, 10 μM: 1440 min, read-out: mouse pl. cpd left at 1440 min
Protocol: as §3, §4

T1 sequence (P61073 whole entry): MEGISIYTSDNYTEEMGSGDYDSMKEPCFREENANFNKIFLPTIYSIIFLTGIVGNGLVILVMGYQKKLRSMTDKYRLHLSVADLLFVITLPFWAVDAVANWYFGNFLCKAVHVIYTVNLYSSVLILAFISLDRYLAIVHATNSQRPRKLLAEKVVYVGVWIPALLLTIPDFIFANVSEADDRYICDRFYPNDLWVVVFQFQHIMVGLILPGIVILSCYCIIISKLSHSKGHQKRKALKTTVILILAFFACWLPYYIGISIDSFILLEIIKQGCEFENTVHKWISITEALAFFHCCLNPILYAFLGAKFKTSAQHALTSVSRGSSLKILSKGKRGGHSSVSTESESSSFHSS

Compound	IC50 [1]	GI50 at 48 h [2]	GI50 at 48 h [3]	Hemolysis at 100 μM [4]	remaining at 24 h, 10 μM [5]	human pl. T1/2 [5]	remaining at 24 h, 10 μM [6]	mouse pl. T1/2 ([6]; up to 1440 min)	half-life at 10 μM ([6]; up to 1440 min, read-out: mouse pl. T1/2)
CCCCCCCCCCCC(=O)NCC[C@@H]1NC(=O)[C@H](Cc2ccc(O)cc2)NC(=O)[C@@H]2CCCN2C(=O)[C@H]2CCCN2C(=O)[C@H](CCCCN)NC(=O)[C@H](CCC(N)=O)NC(=O)[C@H](Cc2ccc(O)cc2)NC(=O)[C@@H]2CSSC[C@H](NC(=O)[C@H](C)NC1=O)C(=O)N[C@@H](CCCNC(=N)N)C(=O)N[C@@H](C)C(=O)N1CCC[C@@H]1C(=O)N[C@@H](CCN)C(=O)N[C@@H](CCCNC(=N)N)C(=O)N[C@@H](Cc1ccc(O)cc1)C(=O)N2 [Ex. 1] (cyclo(Y[Dab](Lauroyl)ACRA[dP][Dab]RYCYQK[dP]P); disulfide 4-11)	94 ± 2.1 nM	> 28 µM	> 50 µM	2.6%	87%	24 h	77%	24 h	
CCCCCCCCCCCC[C@@H]1NC(=O)[C@H](Cc2c[nH]cn2)NC(=O)[C@H](Cc2ccc(O)cc2)NC(=O)[C@@H]2CCCN2C(=O)[C@H]2CCCN2C(=O)[C@H](CCCCN)NC(=O)[C@H](CCC(N)=O)NC(=O)[C@H](Cc2ccc(O)cc2)NC(=O)[C@@H]2CSSC[C@H](NC1=O)C(=O)N[C@@H](CCCNC(=N)N)C(=O)N[C@@H](C)C(=O)N1CCC[C@@H]1C(=O)N[C@@H](CCN)C(=O)N[C@@H](CCCNC(=N)N)C(=O)N[C@@H](Cc1ccc(O)cc1)C(=O)N2 [Ex. 2] (cyclo(YH[Gly(Dodecyl)]CRA[dP][Dab]RYCYQK[dP]P); disulfide 4-11)	55.8 ± 6 nM	> 13 µM	> 32 µM	1.7%	96%	24 h	62%		23.4 h
CCCCCCCC(=O)NCCCC[C@@H]1NC(=O)[C@H](Cc2c[nH]cn2)NC(=O)[C@H](Cc2ccc(O)cc2)NC(=O)[C@@H]2CCCN2C(=O)[C@H]2CCCN2C(=O)[C@H](CCCCN)NC(=O)[C@H](CCC(N)=O)NC(=O)[C@H](Cc2ccc(O)cc2)NC(=O)[C@@H]2CSSC[C@H](NC1=O)C(=O)N[C@@H](CO)C(=O)N[C@@H](C)C(=O)N1CCC[C@@H]1C(=O)N[C@@H](CCN)C(=O)N[C@@H](CCCNC(=N)N)C(=O)N[C@@H](Cc1ccc(O)cc1)C(=O)N2 [Ex. 3] (cyclo(YHK(Octanoyl)CSA[dP][Dab]RYCYQK[dP]P); disulfide 4-11)	19.4 ± 13 nM	> 45 µM	> 50 µM	0.6%	86%	24 h	86%	24 h	
